The values below come from patent US9296720B2, “Carboxamide-substituted heteroaryl-pyrazoles and the use thereof” (AiCuris GmbH & Co. KG, priority 2011, dated 2016).

A word on the IC50: it is the concentration needed to halve the response being measured. For orientation: EC50 means the midpoint of the concentration-response curve.

Like-named read-outs stand apart in the source and are kept apart here.

The target of one test is T1, reverse transcriptase (Human immunodeficiency virus type 1 group M subtype B, UniProt P04585).
T1 construct: negative control (batch without reverse transcriptase); purchased Roche Diagnostics GmbH, Mannheim, Germany
Nature of the test: Biochemical reverse transcriptase assay (Reverse Transcriptase Assay, colorimetric, Roche). The following applies: colorimetric RT assay, DMSO 1%. As to the method: The “Reverse Transcriptase Assay, colorimetric” (Roche Diagnostics GmbH, Mannheim, Germany) is used according to manufacturers' instructions. The test substances are dissolved in DMSO and used in diluted form in the test in the five steps (DMSO final concentration: 1%). The resulting values of the photometric analysis (405/492 nm) are smaller than 0.1 in the negative control (batch without reverse transcriptase) and are in the range of 1.5 in the positive control (batch without test substance). The IC50 values of the test substances are determined as the concentration of the test substance dilution, in which the measured optical density is 50% of the positive control.

A further test has as its system HIV-1NL4-3 Wild Type. Kind of test: Luminescence reduction assay, MT4 cells infected with HIV-1NL4-3 luciferase reporter virus, wild type. The settings on record: 2% FCS. The test is classed as cell-based. A digest of the protocol:
(§1)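 Compound dilution series in 1% DMSO, with 2% or 10% FCS, incubated 5 days at 37° C/5% CO2 with MT4 cells previously pellet-infected (2 h) by luciferase reporter NL4-3 virus, wild type or carrying RT resistance mutations. EC50 taken where luminescence from secreted luciferase falls to 50% of untreated infected control.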
(In a reporter assay the amount or activity of a reporter protein is the signal.)

The test system of a further test is HIV-1NL4-3 K103N-Y181C. Nature of the test: Luminescence reduction assay, MT4 cells infected with HIV-1NL4-3 luciferase reporter virus, RT mutant K103N-Y181C. It counts as cell-based. A digest of the protocol:
as §1

Another test deals with HIV-1LAI Wild Type. Kind of test: AlamarBlue viability assay, HIV-1LAI-infected MT4 cells. It counts as cell-based. The following applies: 10% FCS. A digest of the protocol:
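MT4 cells infected with HIV-1LAI (MOI 0.01, supernatant infection) cultured 5 days at 37 °C with compounds in RPMI with 2% or 10% FCS, 1% DMSO final. AlamarBlue fluorescence after 3 h; EC50 as 50% protection relative to uninfected cells, CC50 from high-concentration cytotoxicity.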

[1] abbreviates: Human immunodeficiency virus 1, MT4, MT4 cells.
The mark [2] stands for this setting: Human immunodeficiency virus 1, MT4, read-out: EC50 (μM) MT4 Cells HIV-1NL4-3 K103N-Y181C 2% FCS, MT4 cells, HIV-1NL4-3 K103N-Y181C, 2% FCS.
Where [3] appears, read: read-out: EC50 (μM) MT4 Cells HIV-1NL4-3 K103N-Y181C 2% FCS, MT4 cells, HIV-1NL4-3 K103N-Y181C, 2% FCS.

As for `O=C1CN(C(=O)c2cc(-c3cc(Br)cc(OC(F)(F)F)c3)n(-c3ccnc(Cl)c3)n2)CCN1` [Example 49, 4-({5-[3-Bromo-5-(trifluoromethoxy)phenyl]-1-(2-chloropyridin-4-yl)-1H-pyrazol-3-yl}carbonyl)piperazin-2-one], the IC50 on reverse transcriptase came to 0.758 µM. The 50% effective concentration (EC50) in the test with HIV-1NL4-3 Wild Type (setting [1]) was 0.008 µM; in the test on HIV-1NL4-3 K103N-Y181C (setting [2]), 0.038 µM; with HIV-1LAI Wild Type (setting [1]) it was 0.23 µM.
The like results for `O=C(c1cc(-c2cc(Cl)cc(OC(F)F)c2)n(-c2cccnc2)n1)N1CCS(=O)(=O)C1` [Example 83, {5-[3-Chloro-5-(difluoromethoxy)phenyl]-1-(pyridin-3-yl)-1H-pyrazol-3-yl}(1,1-dioxido-1,3-thiazolidin-3-yl)methanone] were, in that order, 0.065 µM, 0.008 µM, 0.168 µM and 0.089 µM.
The like results for `O=C1CN(C(=O)c2cc(-c3cc(Br)cc(OC(F)(F)F)c3)n(-c3cccnc3)n2)CN1` [Example 28, 1-({5-[3-Bromo-5-(trifluoromethoxy)phenyl]-1-(pyridin-3-yl)-1H-pyrazol-3-yl}carbonyl)imidazolidin-4-one] were, in that order, 0.213 µM, 0.005 µM, 0.005 µM and 0.044 µM.
As to `COc1cncc(-c2cc(C(=O)N3CNC(=O)C3)nn2-c2ccc(F)c(Cl)c2)c1` [Example 102, 1-{[1-(3-Chloro-4-fluorophenyl)-5-(5-methoxypyridin-3-yl)-1H-pyrazol-3-yl]carbonyl}imidazolidin-4-one], the EC50 was 0.026 µM in the test on HIV-1NL4-3 Wild Type (setting [1]), 0.022 µM in the test on HIV-1NL4-3 K103N-Y181C (setting [2]) and 0.111 µM with HIV-1LAI Wild Type (setting [1]).
The like results for `COc1cc(Br)cc(-c2cc(C(=O)N3CNC(=O)C3)nn2-c2ccnc(Cl)c2)c1` [Example 96, 1-{[5-(3-Bromo-5-methoxyphenyl)-1-(2-chloropyridin-4-yl)-1H-pyrazol-3-yl]carbonyl}imidazolidin-4-one] were, in that order, 0.004 µM, 0.02 µM and 0.016 µM.
As for `O=C1CN(C(=O)c2cc(-c3cc(Br)cc(OC(F)(F)F)c3)n(-c3cncc(Cl)c3)n2)CCN1` [Example 43, 4-({5-[3-Bromo-5-(trifluoromethoxy)phenyl]-1-(5-chloropyridin-3-yl)-1H-pyrazol-3-yl}carbonyl)piperazin-2-one], the results for the EC50 with HIV-1NL4-3 Wild Type (setting [1]), in the test on HIV-1NL4-3 K103N-Y181C (setting [2]) and with HIV-1LAI Wild Type (setting [1]) were 0.103 µM, 0.529 µM and 0.751 µM, respectively.
Compound `O=C1CN(C(=O)c2cc(-c3cc(F)cc(OC(F)(F)F)c3)n(-c3cccnc3)n2)CCN1` [Example 58] returned an IC50 against reverse transcriptase of 0.056 µM. The EC50 is 0.204 µM in the test on HIV-1NL4-3 Wild Type (setting [1]), 1.09 µM in the test with HIV-1NL4-3 K103N-Y181C (setting [2]) and 0.955 µM in the test on HIV-1LAI Wild Type (setting [1]).
In the case of `O=C(c1cc(-c2cc(F)cc(Cl)c2)n(-c2cccnc2)n1)N1CCSC1` [Example 5, [5-(3-Chloro-5-fluorophenyl)-1-(pyridin-3-yl)-1H-pyrazol-3-yl](1,3-thiazolidin-3-yl)methanone], the EC50 in the test on HIV-1NL4-3 Wild Type (setting [1]) was 0.023 µM; in the test on HIV-1NL4-3 K103N-Y181C (setting [2]), 1.32 µM; in the test with HIV-1LAI Wild Type (setting [1]), 0.533 µM.
`O=C(c1cc(-c2cc(F)cc(Cl)c2)n(-c2cccnc2)n1)N1CC[S+]([O-])C1` (racemic) [Example 6-1, [5-(3-Chloro-5-fluorophenyl)-1-(pyridin-3-yl)-1H-pyrazol-3-yl](1-oxido-1,3-thiazolidin-3-yl)methanone]: the EC50 in the test on HIV-1NL4-3 Wild Type (MT4 cells) was 0.255 µM; with HIV-1NL4-3 K103N-Y181C (setting [3]), over 3.3 µM; in the test on HIV-1LAI Wild Type (MT4 cells), 1.49 µM.
For `O=C1CN(C(=O)c2cc(-c3cc(F)cc(OC(F)(F)F)c3)n(-c3ccnc(Cl)c3)n2)CCN1` [Example 63, 4-({-(2-Chloropyridin-4-yl)-5-[3-fluoro-5-(trifluoromethoxy)phenyl]-1H-pyrazol-3-yl}carbonyl)piperazin-2-one], the results for the EC50 in the test on HIV-1NL4-3 Wild Type (setting [1]), in the test with HIV-1NL4-3 K103N-Y181C (setting [2]) and in the test with HIV-1LAI Wild Type (setting [1]) were 0.354 µM, 0.892 µM and 2.08 µM, respectively.
Regarding `O=C(c1cc(-c2cc(F)cc(OC(F)(F)F)c2)n(-c2cccnc2)n1)N1CC[S+]([O-])C1` (racemic) [Example 60, {5-[3-Fluoro-5-(trifluoromethoxy)phenyl]-1-(pyridin-3-yl)-1H-pyrazol-3-yl}(1-oxido-1,3-thiazolidin-3-yl)methanone], the EC50 came to 0.077 µM with HIV-1NL4-3 Wild Type (MT4 cells), 0.621 µM with HIV-1NL4-3 K103N-Y181C (setting [3]) and 0.997 µM in the test with HIV-1LAI Wild Type (MT4 cells).
For `O=C1CN(C(=O)c2cc(-c3cc(Br)cc(OC(F)(F)F)c3)n(-c3ccc(Cl)nc3)n2)CCN1` [Example 35, 4-({5-[3-Bromo-5-(trifluoromethoxy)phenyl]-1-(6-chloropyridin-3-yl)-1H-pyrazol-3-yl}carbonyl)piperazin-2-one], the results for the EC50 with HIV-1NL4-3 Wild Type (setting [1]), in the test with HIV-1NL4-3 K103N-Y181C (setting [2]) and with HIV-1LAI Wild Type (setting [1]) were 0.042 µM, 0.01 µM and 0.232 µM, respectively.
`Nc1ccc(-n2nc(C(=O)N3CNC(=O)C3)cc2-c2cc(F)cc(Cl)c2)cn1` [Example 12, 1-{[1-(6-Aminopyridin-3-yl)-5-(3-chloro-5-fluorophenyl)-1H-pyrazol-3-yl]carbonyl}imidazolidin-4-one]: the EC50 was 0.189 µM with HIV-1NL4-3 Wild Type (setting [1]), 0.377 µM with HIV-1NL4-3 K103N-Y181C (setting [2]) and 1.79 µM in the test on HIV-1LAI Wild Type (setting [1]).
The like results for `COc1cc(Br)cc(-c2cc(C(=O)N3CNC(=O)C3)nn2-c2cccnc2)c1` [Example 94, 1-{[5-(3-Bromo-5-methoxyphenyl)-1-(pyridin-3-yl)-1H-pyrazol-3-yl]carbonyl}imidazolidin-4-one] were, in that order, under 0.002 µM, 0.012 µM and 0.006 µM.
The like results for `O=C1CN(C(=O)c2cc(-c3cc(F)cc(Br)c3)n(-c3ccnc(Cl)c3)n2)CN1` [Example 92, 1-{[5-(3-Bromo-5-fluorophenyl)-1-(2-chloropyridin-4-yl)-1H-pyrazol-3-yl]carbonyl}imidazolidin-4-one] were, in that order, 0.005 µM, 0.033 µM and 0.026 µM.
Consider `O=C(c1cc(-c2cc(F)cc(OC(F)(F)F)c2)n(-c2ccnc(Cl)c2)n1)N1CCS(=O)(=O)C1` [Example 65, {1-(2-Chloropyridin-4-yl)-5-[3-fluoro-5-(trifluoromethoxy)phenyl]-1H-pyrazol-3-yl}(1,1-dioxido-1,3-thiazolidin-3-yl)methanone], for which the EC50 with HIV-1NL4-3 Wild Type (setting [1]) stood at 0.026 µM; in the test on HIV-1NL4-3 K103N-Y181C (setting [2]), 0.291 µM; in the test with HIV-1LAI Wild Type (setting [1]), 0.491 µM.
The like results for `O=C1CN(C(=O)c2cc(-c3cncc(F)c3)n(-c3ccc(F)c(Cl)c3)n2)CCN1` [Example 99, 4-{[1-(3-Chloro-4-fluorophenyl)-5-(5-fluoropyridin-3-yl)-1H-pyrazol-3-yl]carbonyl}piperazin-2-one] were, in that order, 0.113 µM, 1.31 µM and 0.258 µM.
